From US20210040062A1, “AZOLE-SUBSTITUTED PYRIDINE COMPOUND” (TAISHO PHARMACEUTICAL CO., LTD., priority 2016, published 2021) come the findings set out here.

The target of one assay is T1, human CYP4F2 (Homo sapiens, UniProt P78329).
T1 construct: host or cells: Escherichia coli (membrane fraction)
T1 sequence (P78329 5-520): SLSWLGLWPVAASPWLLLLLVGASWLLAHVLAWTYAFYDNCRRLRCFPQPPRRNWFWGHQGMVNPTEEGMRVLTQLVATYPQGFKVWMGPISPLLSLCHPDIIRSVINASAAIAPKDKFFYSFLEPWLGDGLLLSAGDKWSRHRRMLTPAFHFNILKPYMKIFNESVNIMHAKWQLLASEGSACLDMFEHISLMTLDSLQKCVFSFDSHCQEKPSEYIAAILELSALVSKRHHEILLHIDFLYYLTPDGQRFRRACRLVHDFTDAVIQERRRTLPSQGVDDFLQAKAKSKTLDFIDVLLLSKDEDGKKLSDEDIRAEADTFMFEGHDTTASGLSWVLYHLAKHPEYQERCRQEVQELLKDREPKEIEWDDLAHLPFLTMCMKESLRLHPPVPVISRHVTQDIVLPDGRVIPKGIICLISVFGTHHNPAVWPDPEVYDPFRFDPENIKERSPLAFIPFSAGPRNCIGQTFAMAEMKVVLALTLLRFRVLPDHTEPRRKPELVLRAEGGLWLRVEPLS
Description: CYP4F2 inhibition test (Test Example 1). Conditions: Escherichia coli membrane fraction expressing human CYP4F2, 2.5 μM luciferine derivative, room temperature 60 minutes, luminescence. The assay is classed as biochemical. An outline of the steps:
(§1)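 Luminescent read-out after adding luciferin detection reagent to a 60 min room-temperature reaction of compound with human CYP-expressing E. coli membrane fraction (100 μg/mL). Substrate and buffer differ: 60 μM luciferin derivative in Tris pH 7.5 with NADPH regeneration for CYP4A11; 2.5 μM in KPO4 pH 7.4 with 1 mM NADPH for CYP4F2.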

A further assay concerns the target T2, human CYP4A11 (Homo sapiens, UniProt Q02928).
T2 construct: host or cells: Escherichia coli (membrane fraction)
T2 sequence (Q02928 5-519): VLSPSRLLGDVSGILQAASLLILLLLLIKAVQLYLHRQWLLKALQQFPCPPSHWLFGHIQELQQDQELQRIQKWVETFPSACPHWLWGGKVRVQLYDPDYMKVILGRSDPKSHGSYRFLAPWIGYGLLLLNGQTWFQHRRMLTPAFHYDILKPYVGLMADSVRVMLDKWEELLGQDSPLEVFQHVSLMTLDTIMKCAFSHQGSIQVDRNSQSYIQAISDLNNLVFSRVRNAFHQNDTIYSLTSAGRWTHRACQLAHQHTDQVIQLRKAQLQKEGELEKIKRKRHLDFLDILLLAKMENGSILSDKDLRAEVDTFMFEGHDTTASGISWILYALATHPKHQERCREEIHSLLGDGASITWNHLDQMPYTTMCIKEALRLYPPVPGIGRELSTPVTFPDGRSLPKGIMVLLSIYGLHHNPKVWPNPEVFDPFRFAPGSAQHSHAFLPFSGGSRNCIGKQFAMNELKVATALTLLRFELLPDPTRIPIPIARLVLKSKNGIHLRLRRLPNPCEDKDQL
Description: CYP4A11 inhibition test (Test Example 1). The class given is biochemical. The conditions noted are these: Escherichia coli membrane fraction expressing human CYP4A11, 60 μM luciferine derivative, room temperature 60 minutes, luminescence. In outline: as §1

SMILES strings stand for the structures.

Consider `c1cc(-c2ccc(OCc3cncc(-n4nccn4)c3)cn2)[nH]n1` [Example 25-8], for which the IC50 on human CYP4F2 was found to be 230 nM; against human CYP4A11, 2500 nM.

Take `c1cc(-c2ccc(OCc3ccnc(-n4cncn4)c3)cn2)[nH]n1` [Example 25-9]: the IC50 came to 12 nM against human CYP4F2 and 1300 nM against human CYP4A11.

For the compound `COc1ccc(COc2ccc(-c3ccn[nH]3)nc2)cc1S(C)(=O)=O` [Example 25-10], the 50% inhibitory concentration (IC50) on human CYP4F2 came to 20 nM; against human CYP4A11, 1100 nM.

In the case of `O=c1ccc2cc(COc3ccc(-c4ccn[nH]4)nc3)ccc2o1` [Example 25-11], the values for the IC50 at human CYP4F2 and on human CYP4A11 were 3 nM and 1600 nM, respectively.

Turning to `FC(F)(F)c1cc(COc2ccc(-c3ccn[nH]3)nc2)cc(C(F)(F)F)c1` [Example 25-12], the IC50 was found to be 1600 nM on human CYP4F2 and 75 nM on human CYP4A11.

For the compound `CC1(C)Cc2cc(COc3ccc(-c4ccn[nH]4)nc3)cc(Cl)c2O1` [Example 25-13], the IC50 against human CYP4F2 is 190 nM; against human CYP4A11, 36 nM.

Take `c1ccc2cc(COc3ccc(-c4ccn[nH]4)nc3)ccc2c1` [Example 25-14]: the results for the IC50 on human CYP4F2 and at human CYP4A11 were 16 nM and 410 nM, respectively.

For `c1cc(-c2ccc(OCc3ccc4nccnc4c3)cn2)[nH]n1` [Example 25-15], the figures for the IC50 against human CYP4F2 and on human CYP4A11 were 11 nM and 2700 nM, respectively.

With `COc1ccc2ccc(COc3ccc(-c4ccn[nH]4)nc3)cc2n1` [Example 25-16], the IC50 on human CYP4F2 turned out to be 3.2 nM; against human CYP4A11, 2200 nM.

For the compound `CS(=O)(=O)c1ccc(COc2ccc(-c3ccn[nH]3)nc2)cc1` [Example 25-18], the IC50 against human CYP4F2 was 96 nM; on human CYP4A11, 6000 nM.

As for `FC(F)(F)Sc1cccc(COc2ccc(-c3ccn[nH]3)nc2)c1` [Example 25-19], the IC50 against human CYP4F2 is 83 nM; on human CYP4A11, 100 nM.

In the case of `FC(F)(F)c1ccc(COc2ccc(-c3ccn[nH]3)nc2)cc1` [Example 25-20], the IC50 at human CYP4F2 is 14 nM; at human CYP4A11 it was 1200 nM.

`Cc1ccc(S(=O)(=O)c2ccc(COc3ccc(-c4ccn[nH]4)nc3)cc2)cc1` [Example 25-21]: the values for the IC50 against human CYP4F2 and on human CYP4A11 were 40 nM and 2400 nM, respectively.

Consider `FC(F)(F)Oc1ccc(COc2ccc(-c3ccn[nH]3)nc2)cc1` [Example 25-22], for which the results for the IC50 on human CYP4F2 and on human CYP4A11 were 9.2 nM and 1500 nM, respectively.

Take `FC(F)(F)Oc1cccc(COc2ccc(-c3ccn[nH]3)nc2)c1` [Example 25-23]: the values for the IC50 against human CYP4F2 and against human CYP4A11 were 52 nM and 160 nM, respectively.

Take `CC1CCCC(C)N1C(=O)c1cccc(COc2ccc(-c3ccn[nH]3)nc2)c1` (centres unmarked) [Example 25-24]: the half-inhibitory concentration (IC50) against human CYP4F2 is 350 nM; against human CYP4A11, 2500 nM.

As for `C(=C\c1ccc(COc2ccc(-c3ccn[nH]3)nc2)cc1)/c1ccccc1` [Example 25-28], the IC50 was 5.1 nM on human CYP4F2 and more than 50000 nM on human CYP4A11.

For `FC(F)(F)c1cccc(COc2ccc(-c3ccn[nH]3)nc2)c1` [Example 25-29], the IC50 at human CYP4F2 worked out at 88 nM; at human CYP4A11 it was 67 nM.

For `CC(=O)N1CCC(COc2ccc(-c3cn[nH]c3)nc2)CC1` [Example 39-1, 1-(4-{[6-(1H-Pyrazol-4-yl)pyridin-3-yl]oxymethyl}piperidin-1-yl)ethanone], the IC50 stood at 240 nM at human CYP4F2 and 220 nM against human CYP4A11.

`CS(=O)(=O)c1ccccc1CCOc1ccc(-c2cn[nH]c2)nc1` [Example 39-2]: the half-inhibitory concentration (IC50) against human CYP4F2 was 320 nM; against human CYP4A11 it was 95 nM.

`CS(=O)(=O)c1cccc(COc2ccc(-c3[nH]ncc3C(F)(F)F)nc2)c1` [Example 40-1, 5-[(3-Methylsulfonylphenyl)methoxy]-2-[4-(trifluoromethyl)-1H-pyrazol-5-yl]pyridine]: the IC50 against human CYP4F2 and against human CYP4A11 was 12000 nM throughout.

Consider `CS(=O)(=O)c1cccc(COc2ccc(-c3cn[nH]c3)nc2)c1` [Example 41-1, 5-[(3-Methylsulfonylphenyl)methoxy]-2-(1H-pyrazol-4-yl)pyridine], for which the IC50 was 470 nM on human CYP4F2 and 120 nM against human CYP4A11.

Usually IC50 stands for the concentration needed to halve the response being measured. High values mean weaker potency, low ones greater potency.
